Several values for one entry are separate records, joined by “and”; a condition that tells them apart may be missing. Identical values can stand only once. Results filed as inconclusive are left out.
Tested on: CD8F1 mice, subcutaneous mammary adenocarcinoma, T/C%
Experiment: NCI In Vivo Anticancer Drug Screen. Data for tumor model Mammary Adenocarcinoma CD8F1 (subcutaneous) in CD8F1
Conditions: higher = larger tumour
How it was run: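 Tumor-bearing mice, transplantable model; readout survival or tumor size; value = treated (T) / vehicle control (C).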

[1] = endpoint: median tumor weight change, dose: 16.0 mg/kg/injection, schedule: Q01DX001 (ip), vehicle: saline with Tween-80
[2] = endpoint: median tumor weight change, dose: 250.0 mg/kg/injection, schedule: Q01DX001 (ip), vehicle: saline with Tween-80
[3] = endpoint: median tumor weight change, dose: 125.0 mg/kg/injection, schedule: Q01DX001 (ip), vehicle: saline
[4] = endpoint: median tumor weight change, dose: 62.5 mg/kg/injection, schedule: Q01DX001 (ip), vehicle: saline with Tween-80
[5] = endpoint: median tumor weight change, dose: 125.0 mg/kg/injection, schedule: Q01DX001 (ip), vehicle: saline with Tween-80

Cc1c(-c2ccc(-c3ccccc3F)cc2)nc2ccc(F)cc2c1C(=O)O
T/C (endpoint: median tumor weight change, dose: 5.6 mg/kg/injection, schedule: Q01DX005 (ip), vehicle: water): 53 % of control | T/C (endpoint: median tumor weight change, dose: 11.25 mg/kg/injection, schedule: Q01DX005 (ip), vehicle: water): 33 % of control | T/C (endpoint: median tumor weight change, dose: 19.0 mg/kg/injection, schedule: Q01DX005 (ip), vehicle: water): 74 % of control | T/C (endpoint: median tumor weight change, dose: 22.5 mg/kg/injection, schedule: Q01DX005 (ip), vehicle: water): 29 % of control | T/C (endpoint: median tumor weight change, dose: 32.4 mg/kg/injection, schedule: Q01DX005 (ip), vehicle: water): 13 % of control | T/C (endpoint: median tumor weight change, dose: 45.0 mg/kg/injection, schedule: Q01DX001 (ip), vehicle: water): 56 % of control | T/C (endpoint: median tumor weight change, dose: 45.0 mg/kg/injection, schedule: Q01DX005 (ip), vehicle: water): 24 % of control | T/C (endpoint: median tumor weight change, dose: 54.0 mg/kg/injection, schedule: Q01DX005 (ip), vehicle: water): 27 % of control | T/C (endpoint: median tumor weight change, dose: 90.0 mg/kg/injection, schedule: Q01DX001 (ip), vehicle: water): 82 % of control | T/C (endpoint: median tumor weight change, dose: 90.0 mg/kg/injection, schedule: Q01DX005 (ip), vehicle: water): 15 % of control and 20 % of control

Nc1nc(N)c2c(ccc3c2ccn3Cc2cccc([N+](=O)[O-])c2)n1
T/C (endpoint: median tumor weight change, dose: 7.75 mg/kg/injection, schedule: Q01DX001 (ip), vehicle: saline with Tween-80): 66 % of control | T/C (endpoint: median tumor weight change, dose: 8.0 mg/kg/injection, schedule: Q01DX001 (ip), vehicle: saline with Tween-80): 56 % of control | T/C [1]: 67 % of control

Nc1nc2ccc(NCc3ccc(C(=O)NC(CCC(=O)O)C(=O)O)cc3)cc2c(=O)[nH]1 (configuration not stated)
T/C (endpoint: median tumor weight change, dose: 25.0 mg/kg/injection, schedule: Q01DX001 (ip), vehicle: saline with Tween-80): 115 % of control | T/C (endpoint: median tumor weight change, dose: 100.0 mg/kg/injection, schedule: Q01DX001 (ip), vehicle: saline with Tween-80): 68 % of control

C[CH2][Sn]([CH2]C)([CH2]C(=O)OC)[CH2]C(=O)OC
T/C [1]: 78 % of control

COc1cc2cc(c1Cl)N(C)C(=O)C[C@H](OC(=O)[C@H](C)N(C)C(C)=O)[C@]1(C)O[C@H]1[C@H](C)[C@@H]1C[C@@](O)(NC(=O)O1)[C@H](OC)C=C/C=C(\C)C2
T/C (endpoint: median tumor weight (est.), dose: 0.03 mg/kg/injection, schedule: Q07DX005 (ip), vehicle: Klucel (hydroxypropylcellulose) (HPC)): 167 % of control | T/C (endpoint: median tumor weight (est.), dose: 0.06 mg/kg/injection, schedule: Q07DX005 (ip), vehicle: Klucel (hydroxypropylcellulose) (HPC)): 151 % of control | T/C (endpoint: median tumor weight (est.), dose: 0.12 mg/kg/injection, schedule: Q07DX005 (ip), vehicle: Klucel (hydroxypropylcellulose) (HPC)): 264 % of control | T/C (endpoint: median tumor weight (est.), dose: 0.25 mg/kg/injection, schedule: Q07DX005 (ip), vehicle: Klucel (hydroxypropylcellulose) (HPC)): 188 % of control | T/C (endpoint: median tumor weight (est.), dose: 62.0 micrograms/kg/injection, schedule: Q07DX005 (ip), vehicle: Klucel (hydroxypropylcellulose) (HPC)): 54 % of control | T/C (endpoint: median tumor weight (est.), dose: 125.0 micrograms/kg/injection, schedule: Q07DX005 (ip), vehicle: Klucel (hydroxypropylcellulose) (HPC)): 77 % of control | T/C (endpoint: median tumor weight (est.), dose: 250.0 micrograms/kg/injection, schedule: Q07DX005 (ip), vehicle: Klucel (hydroxypropylcellulose) (HPC)): 110 % of control | T/C (endpoint: median tumor weight (est.), dose: 500.0 micrograms/kg/injection, schedule: Q07DX005 (ip), vehicle: Klucel (hydroxypropylcellulose) (HPC)): 93 % of control | T/C (endpoint: median tumor weight change, dose: 125.0 micrograms/kg/injection, schedule: Q01DX001 (ip), vehicle: Klucel (hydroxypropylcellulose) (HPC)): 67 % of control | T/C (endpoint: median tumor weight change, dose: 500.0 micrograms/kg/injection, schedule: Q01DX001 (ip), vehicle: Klucel (hydroxypropylcellulose) (HPC)): 29 % of control and 35 % of control | T/C (endpoint: median tumor weight change, dose: 1000.0 micrograms/kg/injection, schedule: Q01DX001 (ip), vehicle: Klucel (hydroxypropylcellulose) (HPC)): 3 % of control and 21 % of control | T/C (endpoint: median tumor weight change, dose: 2000.0 micrograms/kg/injection, schedule: Q01DX001 (ip), vehicle: Klucel (hydroxypropylcellulose) (HPC)): 12 % of control

CCN1/C(=C/C=C/C=C/c2sc3ccccc3[n+]2CC)Sc2ccccc21
T/C (endpoint: median tumor weight (est.), dose: 0.37 mg/kg/injection, schedule: Q07DX006 (ip), vehicle: saline): 77 % of control | T/C (endpoint: median tumor weight (est.), dose: 0.75 mg/kg/injection, schedule: Q07DX006 (ip), vehicle: saline): 233 % of control

CN(C=O)C(C(=O)Nc1cccc2c(OC(=O)C(N(C)C=O)(N(C)C=O)N(C)C=O)c(N=Nc3ccc(S(=O)(=O)Nc4nccs4)cc3)cc(N=Nc3ccc(S(=O)(=O)Nc4nccs4)cc3)c12)(N(C)C=O)N(C)C=O (tested in a mixture with another compound)
T/C [2]: 100 % of control | T/C (endpoint: median tumor weight change, dose: 1000.0 mg/kg/injection, schedule: Q01DX001 (ip), vehicle: saline with Tween-80): 119 % of control | T/C (endpoint: median tumor weight change, dose: 2000.0 mg/kg/injection, schedule: Q01DX001 (ip), vehicle: saline with Tween-80): 63 % of control

COc1cc([C@@H]2c3cc4c(c(O)c3C[C@H]3COC(=O)[C@@H]32)OCO4)cc(OC)c1O
T/C (endpoint: median tumor weight (est.), dose: 0.5 mg/kg/injection, schedule: Q07DX005 (ip), vehicle: saline): 275 % of control | T/C (endpoint: median tumor weight (est.), dose: 1.0 mg/kg/injection, schedule: Q07DX005 (ip), vehicle: saline): 85 % of control | T/C (endpoint: median tumor weight (est.), dose: 2.0 mg/kg/injection, schedule: Q07DX005 (ip), vehicle: saline): 56 % of control | T/C (endpoint: median tumor weight (est.), dose: 4.0 mg/kg/injection, schedule: Q07DX005 (ip), vehicle: saline): 26 % of control | T/C (endpoint: median tumor weight (est.), dose: 8.0 mg/kg/injection, schedule: Q07DX005 (ip), vehicle: saline): 27 % of control

COC1OC(CO)C(O)C(NC(=O)N(C)N=O)C1O (configuration not stated)
T/C [3]: 86 % of control

O=C1N[C@@H]([C@H]2CC[C@H](Cl)CN2)C(=O)N[C@H]1[C@H]1CC[C@H](Cl)CN1
T/C (endpoint: median tumor weight (est.), dose: 0.75 mg/kg/injection, schedule: Q07DX005 (ip), vehicle: saline): 40 % of control | T/C (endpoint: median tumor weight (est.), dose: 1.5 mg/kg/injection, schedule: Q07DX005 (ip), vehicle: saline): 29 % of control | T/C (endpoint: median tumor weight (est.), dose: 3.0 mg/kg/injection, schedule: Q07DX005 (ip), vehicle: saline): 11 % of control

COC1/C=C/O[C@@]2(C)Oc3c(C)c(O)c4c(O)c(cc(O)c4c3C2=O)NC(=O)/C(C)=C\C=C\[C@H](C)C(O)[C@@H](C)[C@@H](O)[C@@H](C)[C@H](OC(C)=O)[C@@H]1C (some centres not stated)
T/C (endpoint: median tumor weight change, dose: 31.25 mg/kg/injection, schedule: Q01DX001 (ip), vehicle: saline with Tween-80): 87 % of control | T/C [4]: 82 % of control | T/C [5]: 98 % of control | T/C [2]: 153 % of control | T/C (endpoint: median tumor weight change, dose: 500.0 mg/kg/injection, schedule: Q01DX001 (ip), vehicle: saline with Tween-80): 83 % of control

COC1C(O)CC(OC2CC(Oc3cc4cc5c(c(O)c4c(O)c3C)C(=O)[C@@H](OC3CC(OC4CC(OC6CC(C)(O)C(OC(C)=O)C(C)O6)C(O)C(C)O4)C(O)C(C)O3)[C@H]([C@H](OC)C(=O)[C@@H](O)[C@@H](C)O)C5)OC(C)C2OC(C)=O)OC1C (some centres not stated)
T/C (endpoint: median tumor weight (est.), dose: 0.04 mg/kg/injection, schedule: Q07DX005 (ip), vehicle: saline): 46 % of control | T/C (endpoint: median tumor weight (est.), dose: 0.09 mg/kg/injection, schedule: Q07DX005 (ip), vehicle: saline): 93 % of control | T/C (endpoint: median tumor weight (est.), dose: 0.36 mg/kg/injection, schedule: Q07DX005 (ip), vehicle: saline): 70 % of control | T/C (endpoint: median tumor weight (est.), dose: 0.72 mg/kg/injection, schedule: Q07DX005 (ip), vehicle: saline): 76 % of control and 92 % of control | T/C (endpoint: median tumor weight change, dose: 0.25 mg/kg/injection, schedule: Q01DX001 (ip), vehicle: saline): 63 % of control | T/C (endpoint: median tumor weight change, dose: 0.5 mg/kg/injection, schedule: Q01DX001 (ip), vehicle: saline): 42 % of control | T/C (endpoint: median tumor weight change, dose: 1.0 mg/kg/injection, schedule: Q01DX001 (ip), vehicle: saline): 44 % of control

CCN(CC)CCNc1ccc(C)c2sc3ccc(O)cc3c(=O)c12
T/C [4]: 59 % of control | T/C [5]: 169 % of control | T/C (endpoint: median tumor weight change, dose: 684.0 mg/kg/injection, schedule: Q01DX001 (ip), vehicle: saline with Tween-80): 37 % of control

C=C(C)/C([O-])=N/[N+](C)(C)CC(O)CCCCCCCCCCCC (configuration not stated)
T/C [3]: 63 % of control | T/C (endpoint: median tumor weight change, dose: 250.0 mg/kg/injection, schedule: Q01DX001 (ip), vehicle: saline): 111 % of control

O=C(O)C1CC(c2ccccc2)=NN1c1ccccc1 (configuration not stated)
T/C (endpoint: median tumor weight (est.), dose: 12.5 mg/kg/injection, schedule: Q07DX005 (ip), vehicle: water): 101 % of control | T/C (endpoint: median tumor weight (est.), dose: 25.0 mg/kg/injection, schedule: Q07DX005 (ip), vehicle: water): 83 % of control | T/C (endpoint: median tumor weight (est.), dose: 50.0 mg/kg/injection, schedule: Q07DX005 (ip), vehicle: water): 83 % of control | T/C (endpoint: median tumor weight (est.), dose: 100.0 mg/kg/injection, schedule: Q07DX005 (ip), vehicle: water): 78 % of control | T/C (endpoint: median tumor weight (est.), dose: 200.0 mg/kg/injection, schedule: Q07DX005 (ip), vehicle: water): 70 % of control

COc1ccc2c(NCCCCCCNc3c4ccccc4nc4cc(OC)ccc34)c3ccccc3nc2c1
T/C (endpoint: median tumor weight (est.), dose: 1.25 mg/kg/injection, schedule: Q07DX005 (ip), vehicle: lactic acid): 77 % of control | T/C (endpoint: median tumor weight (est.), dose: 2.5 mg/kg/injection, schedule: Q07DX005 (ip), vehicle: lactic acid): 175 % of control | T/C (endpoint: median tumor weight (est.), dose: 5.0 mg/kg/injection, schedule: Q07DX005 (ip), vehicle: lactic acid): 52 % of control

From PubChem BioAssay AID220 (DTP/NCI, 2004)
